In this assay the target is human PCSK9 (Homo sapiens, UniProt Q8NBP7). The assay is described as follows: PCSK9 ligand binding TR-FRET assay (interference with binding of human PCSK9 to human LDLR). The settings on record: for Max % inhibition: PCSK9 FRET assay, efficacy (Amax), 100% = 1 uM unlabeled human PCSK9, 0% = DMSO; for IC50: TR-FRET, human PCSK9 Alexa Fluor 647 / human LDLR extracellular domain-Europium Kryptate, read-out: PCSK9 FRET Assay IC50. Put shortly:
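Threefold compound dilutions were pre-incubated 30 min with PCSK9, after which 4 nM Europium Kryptate-tagged human LDLR ectodomain was added for a further 2 h.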

Sequence of human PCSK9 (Q8NBP7 153-692): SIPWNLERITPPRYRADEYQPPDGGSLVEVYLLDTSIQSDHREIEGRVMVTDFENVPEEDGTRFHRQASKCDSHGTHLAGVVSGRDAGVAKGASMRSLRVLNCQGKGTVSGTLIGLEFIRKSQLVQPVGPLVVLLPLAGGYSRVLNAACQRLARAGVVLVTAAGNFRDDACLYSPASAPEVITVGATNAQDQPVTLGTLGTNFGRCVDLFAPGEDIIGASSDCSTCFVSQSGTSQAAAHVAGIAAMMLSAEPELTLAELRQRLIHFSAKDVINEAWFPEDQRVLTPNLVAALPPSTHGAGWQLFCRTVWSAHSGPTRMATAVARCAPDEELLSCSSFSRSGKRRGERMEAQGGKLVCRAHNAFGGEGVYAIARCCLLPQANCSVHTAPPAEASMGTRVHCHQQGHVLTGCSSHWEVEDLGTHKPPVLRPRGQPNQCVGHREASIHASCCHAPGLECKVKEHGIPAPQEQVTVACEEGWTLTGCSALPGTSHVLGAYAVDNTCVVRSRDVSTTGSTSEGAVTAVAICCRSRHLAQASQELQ
Sequence of human PCSK9 (Q8NBP7 31-152 partner limits assumed): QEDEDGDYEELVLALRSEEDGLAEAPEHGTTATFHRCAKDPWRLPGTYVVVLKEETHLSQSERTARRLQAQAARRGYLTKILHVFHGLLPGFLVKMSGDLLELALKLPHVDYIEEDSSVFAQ

Take `CCOC(=O)c1ncn(-c2ccc(Oc3cc(Cl)ccc3CN3C(=O)C[C@@H](Cc4ccccc4)C(=O)N(C)[C@@H](C)CNC(=O)C[C@H](Cc4ccc(Cl)cc4)N(C)C(=O)[C@H](COC)NC(=O)[C@@H]3C)cc2)c1C` [Compound 149, ethyl 1-(4-(2-(((2S,5S,8S,13S,16R)-16-benzyl-8-(4-chlorobenzyl)-5-(methoxymethyl)-2,7,13,14-tetramethyl-3,6,10,15,18-pentaoxo-1,4,7,11,14-pentaazacyclooctadecan-1-yl)methyl)-5-chlorophenoxy)phenyl)-5-methyl-1H-imidazole-4-carboxylate]: the Max % inhibition is given as 72.43% and the IC50 was found to be 18.7 nM.

Take `COC[C@@H]1NC(=O)[C@H](C)N(Cc2ccc(Cl)cc2Oc2ccc(-c3cnc(CN(C)C)n3C)cc2)C(=O)C[C@@H](Cc2ccccc2)C(=O)N(C)[C@H]2C[C@H]2NC(=O)C[C@H](Cc2ccc(Cl)cc2)N(C)C1=O` [Compound 247, (1R,5S,8S,11S,15R,18S)-15-benzyl-12-(4-chloro-2-(4-(2-((dimethylamino)methyl)-1-methyl-1H-imidazol-5-yl)phenoxy)benzyl)-5-(4-chlorobenzyl)-8-(methoxymethyl)-6,11,17-trimethyI-2,6,9,12,17-pentaazabicyclo[16.1.0]nonadecane-3,7,10,13,16-pentaone]: the Max % inhibition is recorded as 98.86% and the IC50 worked out at 33.2 nM.

As to `COC[C@@H]1NC(=O)[C@H](C)N(Cc2ccc(Cl)cc2Oc2ccc(-c3cncc(C4=CCNCC4)c3)cc2)C(=O)C[C@@H](Cc2ccccc2)C(=O)N(C)[C@@H](C)CNC(=O)C[C@H](Cc2ccc(Cl)cc2)N(C)C1=O` [Compound 136, (2S,5S,8S,13S,16R)-16-benzyl-1-(4-chloro-2-(4-(1′,2′,3′,6′-tetrahydro-[3,4′-bipyridin]-5-yl)phenoxy)benzyl)-8-(4-chlorobenzyl)-5-(methoxymethyl)-2,7,13,14-tetramethyl-1,4,7,11,14-pentaazacyclooctadecane-3,6,10,15,18-pentaone], the Max % inhibition was 96.16% and the IC50 stood at 5 nM.

With `COC[C@@H]1NC(=O)[C@H](C)N(Cc2ccc(Cl)cc2Oc2ccc(-c3cnc(CN(C)C)n3C)cc2)C(=O)C[C@@H](Cc2ccccc2)C(=O)N(C)C2CCOCC2NC(=O)CC(Cc2ccc(Cl)cc2)N(C)C1=O` (stereo partly drawn) [Compound 61, (4S,7S,10S,14R)-14-benzyl-11-(4-chloro-2-(4-(2-((dimethylamino)methyl)-1-methyl-1H-imidazol-5-yl)phenoxy)benzyl)-4-(4-chlorobenzyl)-7-(methoxymethyl)-5,10,16-trimethyltetradecahydro-1H-pyrano[3,4-1][1,4,7,11,14]pentaazacyclooctadecine-2,6,9,12,15(3H)-pentaone], the Max % inhibition was found to be 99.31% and the IC50 stood at 1.4 nM.

As for `COC[C@@H]1NC(=O)[C@H](C)N(Cc2ccc(Cl)cc2Oc2ccc(-c3cnc(CN(C)C)n3C)cc2)C(=O)CC2(CC2)C(=O)N(C)[C@@H](C)CNC(=O)C[C@H](Cc2ccc(Cl)cc2)N(C)C1=O` [Compound 201, (6S,11S,14S,17S)-18-(4-chloro-2-(4-(2-((dimethylamino)methyl)-1-methyl-1H-imidazol-5-yl)phenoxy)benzyl)-11-(4-chlorobenzyl)-14-(methoxymethyl)-5,6,12,17-tetramethyl-5,8,12,15,18-pentaazaspiro[2.17]icosane-4,9,13,16,19-pentaone], the Max % inhibition is listed as 72.22% and the IC50 was 441 nM.

As for `CCc1ccc(CN2C(=O)C[C@@H](Cc3ccccc3)C(=O)N(C)[C@@H](C)CNC(=O)C[C@H](Cc3ccc(Cl)cc3)N(C)C(=O)[C@H](COC)NC(=O)[C@@H]2C)c(Oc2ccc(-c3cnc(CN4CCCC4)n3C)cc2)c1.Cl` [Compound 150, (2S,5S,8S,13S,16R)-16-benzyl-8-(4-chlorobenzyl)-1-(4-ethyl-2-(4-(1-methyl-2-(pyrrolidin-1-ylmethyl)-1H-imidazol-5-yl)phenoxy)benzyl)-5-(methoxymethyl)-2,7,13,14-tetramethyl-1,4,7,11,14-pentaazacyclooctadecane-3,6,10,15,18-pentaone hydrochloride], the Max % inhibition is given as 104.13% and the concentration for half-maximal inhibition (IC50) is 0.8 nM.

As to `COC[C@@H]1NC(=O)[C@H](C)N(Cc2c(F)cc(F)cc2Oc2ccc(-c3cnc(CN(C)C)n3C)cc2)C(=O)C[C@@H](Cc2ccccc2)C(=O)N(C)[C@@H](C)CNC(=O)C[C@H](Cc2ccc(Cl)cc2)N(C)C1=O` [Compound 236, (2S,5S,8S,13S,16R)-16-benzyl-8-(4-chlorobenzyl)-1-(2-(4-(2-((dimethylamino)methyl)-1-methyl-1H-imidazol-5-yl)phenoxy)-4,6-difluorobenzyl)-5-(methoxymethyl)-2,7,13,14-tetramethyl-1,4,7,11,14-pentaazacyclooctadecane-3,6,10,15,18-pentaone], the Max % inhibition was determined as 95.33% and the concentration for half-maximal inhibition (IC50) is 6.6 nM.

`COC[C@@H]1NC(=O)[C@H](C)N(Cc2ccc(Cl)cc2Oc2ccc(-c3c(C)nc(CN4CCCC4)n3C)cc2)C(=O)C[C@@H](Cc2ccccc2)C(=O)N(C)[C@@H](C)CNC(=O)C[C@H](Cc2ccc(Cl)cc2)N(C)C1=O` [Compound 55, (2S,5S,8S,13S,16R)-16-benzyl-1-(4-chloro-2-(4-(1,4-dimethyl-2-(pyrrolidin-1-ylmethyl)-1H-imidazol-5-yl)phenoxy)benzyl)-8-(4-chlorobenzyl)-5-(methoxymethyl)-2,7,13,14-tetramethyl-1,4,7,11,14-pentaazacyclooctadecane-3,6,10,15,18-pentaone]: the Max % inhibition was found to be 58.77% and the IC50 is 9.3 nM.

As to `COC[C@@H]1NC(=O)[C@H](C)N(Cc2ccc(Cl)cc2Oc2ccc(-c3cnc4n3CCN(C(C)C)C4)cc2)C(=O)C[C@@H](Cc2ccccc2)C(=O)N(C)[C@@H](C)CNC(=O)C[C@H](Cc2ccc(Cl)cc2)N(C)C1=O.O=C(O)C(F)(F)F` [Compound 123, (2S,5S,8S,13S,16R)-16-benzyl-1-(4-chloro-2-(4-(7-isopropyl-5,6,7,8-tetrahydroimidazo[1,2-a]pyrazin-3-yl)phenoxy)benzyl)-8-(4-chlorobenzyl)-5-(methoxymethyl)-2,7,13,14-tetramethyl-1,4,7,11,14-pentaazacyclooctadecane-3,6,10,15,18-pentaone trifluoroacetate], the Max % inhibition worked out at 74.19% and the IC50 amounted to 3.4 nM.

On to `COC[C@@H]1NC(=O)[C@H](C)N(Cc2ccc(Cl)cc2Oc2ccc(-c3cnc(OC)n3C)cc2)C(=O)C[C@@H](Cc2ccccc2)C(=O)N(C)[C@@H](C)CNC(=O)C[C@H](Cc2ccc(Cl)cc2)N(C)C1=O` [Compound 197, (2S,5S,8S,13S,16R)-16-benzyl-1-(4-chloro-2-(4-(2-methoxy-1-methyl-1H-imidazol-5-yl)phenoxy)benzyl)-8-(4-chlorobenzyl)-5-(methoxymethyl)-2,7,13,14-tetramethyl-1,4,7,11,14-pentaazacyclooctadecane-3,6,10,15,18-pentaone], for which the Max % inhibition is recorded as 72.51% and the half-maximal inhibitory concentration (IC50) is 17.4 nM.

With `COC[C@@H]1NC(=O)[C@H](C)N(Cc2ccc(Cl)cc2Oc2ccc(-c3nnc4n3CCN(C(=O)[C@@H]3CCNC3)C4)cc2)C(=O)C[C@@H](Cc2ccccc2)C(=O)N(C)[C@@H](C)CNC(=O)C[C@H](Cc2ccc(Cl)cc2)N(C)C1=O` [Compound 129, (2S,5S,8S,13S,16R)-16-benzyl-1-(4-chloro-2-(4-(7-((R)-pyrrolidine-3-carbonyl)-5,6,7,8-tetrahydro-[1,2,4]triazolo[4,3-a]pyrazin-3-yl)phenoxy)benzyl)-8-(4-chlorobenzyl)-5-(methoxymethyl)-2,7,13,14-tetramethyl-1,4,7,11,14-pentaazacyclooctadecane-3,6,10,15,18-pentaone], the Max % inhibition was determined as 94.48% and the IC50 was 6.3 nM.

Consider `COC[C@@H]1NC(=O)[C@H](COC)N(Cc2ccc(Cl)cc2Oc2ccc(-c3cnc(CN(C)C)n3C)cc2)C(=O)C[C@@H](Cc2ccccc2)C(=O)N(C)[C@H]2CCCC[C@@H]2NC(=O)C[C@H](Cc2ccc(Cl)cc2)N(C)C1=O` [Compound 234, (4S,7S,10S,14R,16aS,20aS)-14-benzyl-11-(4-chloro-2-(4-(2-((dimethylamino)methyl)-1-methyl-1H-imidazol-5-yl)phenoxy)benzyl)-4-(4-chlorobenzyl)-7,10-bis(methoxymethyl)-5,16-dimethylhexadecahydrobenzo[l][1,4,7,11,14]pentaazacyclooctadecine-2,6,9,12,15(3H)-pentaone], for which the Max % inhibition was found to be 100.63% and the IC50 was 0.8 nM.

Turning to `COC[C@@H]1NC(=O)[C@H](C)N(Cc2ccc(Cl)cc2Oc2ccc(-c3cncc(C4CCNCC4)c3)cc2)C(=O)C[C@@H](Cc2ccccc2)C(=O)N(C)[C@@H](C)CNC(=O)C[C@H](Cc2ccc(Cl)cc2)N(C)C1=O` [Compound 137, (2S,5S,8S,13S,16R)-16-benzyl-1-(4-chloro-2-(4-(5-(piperidin-4-yl)pyridin-3-yl)phenoxy)benzyl)-8-(4-chlorobenzyl)-5-(methoxymethyl)-2,7,13,14-tetramethyl-1,4,7,11,14-pentaazacyclooctadecane-3,6,10,15,18-pentaone], the Max % inhibition was determined as 90.76% and the half-inhibitory concentration (IC50) came to 8.4 nM.

`COC[C@H]1C(=O)N[C@@H](CO)C(=O)N(C)[C@@H](Cc2ccc(Cl)cc2)CC(=O)NC[C@H](C)N(C)C(=O)CCC(=O)N1Cc1ccccc1Oc1ccc(-c2cnc(CN(C)C)n2C)cc1` [Compound 200, (2S,5S,8S,13S)-8-(4-chlorobenzyl)-1-(2-(4-(2-((dimethylamino)methyl)-1-methyl-1H-imidazol-5-yl)phenoxy)benzyl)-5-(hydroxymethyl)-2-(methoxymethyl)-7,13,14-trimethyl-1,4,7,11,14-pentaazacyclooctadecane-3,6,10,15,18-pentaone]: the Max % inhibition is recorded as 93.78% and the IC50 was determined as 65.4 nM.

The IC50 is the concentration at which inhibition is half-maximal.

The values are drawn from patent publication US20230089867A1, “CYCLIC PENTAMER COMPOUNDS AS PROPROTEIN CONVERTASE SUBTILISIN/KEXIN TYPE 9 (PCSK9) INHIBITORS FOR THE TREATMENT OF METABOLIC DISORDER” (Novartis AG, priority 2018, published 2023).
